Experiment [1] has as its system human immunodeficiency virus (HIV). More on the design: method as in PMID 27161874. To be noted: cited from earlier work.
The subject of experiment [2] is PIV5-GFP. As to the kind of experiment: Western blotting for PIV5 NP and P proteins in infected Hs27 cells. Conditions: 10 µM before and after infection; high MOI; lysates at 24 hpi. It is filed as cell-based, parainfluenza virus 5. From the text:
Hs27 (human skin fibroblast) cells cultured in 6-well dishes were lysed using protein lysis buffer. Cell lysates were resolved on 12% sodium dodecyl sulfate-polyacrylamide gel electrophoresis (SDS-PAGE) gels and transferred to nitrocellulose membranes (Bio-Rad, Hercules, CA, USA). After normalizing samples via western blotting for β-actin (1:20,000 dilution, catalog number A5316, Sigma-Aldrich, St. Louis, MO, USA), samples were probed with rabbit polyclonal antibodies for the PIV5 NP (1:2000) and P proteins (1:2000). Blots were visualized using anti-mouse horseradish peroxidase (HRP)-conjugated antibodies (Sigma-Aldrich) and chemiluminescence (Thermo Fisher Scientific).
The above experiments utilized GFP expression and flow cytometry as an assay for observing the effects of chalcones on viral protein expression. To extend this analysis to bona fide viral proteins, cells were left untreated, DMSO-treated, or treated with the chalcone 8o at 10 μM for 24 h. Cells were then infected with PIV5-GFP at a high MOI and then cultured in control media or media supplemented with 8o.
(In general: In western blotting, separated proteins are transferred to a membrane and probed.)

Experiment [3] has as its system PIV5-GFP. As to the kind of experiment: RT-qPCR of PIV5 genes (F, HN, NP) in infected Hs27 cells. Conditions: 10 µM before and after infection, MOI 10, normalized to actin. It is filed as cell-based, parainfluenza virus 5. The protocol: Hs27 cells cultured in 6-well dishes were collected in TRIzol® (Invitrogen) followed by RNA extraction. To produce cDNA, 1 μg of total RNA was used with TaqMan® Reverse Transcription Reagents (Applied Biosystems, Foster City, CA, USA) as described in the manufacturer’s instructions. Quantitative real-time PCR was performed using Bio-Rad CFX Connect Real-Time (Bio-Rad, Hercules, CA, USA) and Fast SYBR® FAST Green Master Mix (Applied Biosystems, Foster City, CA, USA). Relative gene expression was determined using CFX Manager Software (Bio-Rad, version 2.3) and the following primers (Table 1).
To better understand how the chalcones were inhibiting virus growth, RT-qPCR was utilized to determine the effect of chalcone treatment on viral gene expression. Hs27 cells were treated with DMSO as a control or treated with 8o at a concentration of 10 µM. At 24 hpt, cells were mock infected or infected with PIV5-GFP at a high MOI and immediately replaced with media supplemented with 8o. Total RNA was collected at 2, 5, and 10 hpi and used in RT-qPCR assays to measure levels of the PIV5 genes: fusion (F) protein, hemagglutinin-neuraminidase (HN) protein, and nucleocapsid (NP) protein. Collection at various time points allows one to kinetically distinguish between the chalcone-mediated inhibition of early and late viral gene expression. Values were normalized to actin and were set relative to the DMSO-treated control of each corresponding time point.

Experiment [4] deals with human cytomegalovirus (HCMV). The arrangement: method as in PMID 23768434. To be noted: cited from earlier work.

Data on one compound can be found in article PMC12467382, “Synthesis and Bioevaluation of Chalcones as Broad-Spectrum Antiviral Compounds Against Single-Stranded RNA Viruses” (Biomolecules, 2025).

For the compound `CCOc1ccc(Br)cc1/C=C/C(=O)c1c(O)cccc1OCc1ccccc1` [Chalcone 8o], the “Antiviral activity against HIV” value in experiment [1] is reported as “had efficacy as an antiviral agent”. Besides, the “PIV5 NP and P viral protein levels” value with PIV5-GFP [2] is “very little viral protein”. Further, the “Viral gene expression (F, HN, NP) vs DMSO-treated control at 2 hpi” value in the experiment with PIV5-GFP [3] is “minimal differences”. Moreover, in the experiment with PIV5-GFP [3] (relative to DMSO), the “Reduction in viral gene expression at 5 hpi” value is given as ~ 5 fold and the “Reduction in viral gene expression at 10 hpi” value is “greater than 100 fold”. Besides, in experiment [4], the “Antiviral activity against HCMV” value was “had efficacy as an antiviral agent”.
